# Data as given in US20200261391A1, “METHODS OF REDUCING THE RISK OF A CARDIOVASCULAR EVENT IN A STATIN-TREATED SUBJECT BY INCREASING SERUM AND PLASMA EPA AND DPA LEVELS” (Amarin Pharmaceuticals Ireland Limited, priority 2019, published 2020).
# Test system: TG, non-HDL-C, LDL-C, HDL-C, apo B, hsCRP
# Assay: REDUCE-IT trial: fasting lipid, lipoprotein and inflammatory marker data over time
# Format: in vivo, human
# Description: Fasting Lipid Profile: The fasting lipid panel included: TG, TC, LDL-C, HDL-C, non-HDL-C, and VLDL-C. At all visits, LDL-C was calculated using the Friedewald equation. At Visit 1 and Visit 1.1 direct LDL-C were used if at the same visit TG>400 mg/dL (4.52 mmol/L). These LDL-C values were used for the evaluation of the LDL-C inclusion criterion (LDL-C qualifying measurements for randomization) and for the assessment of changes in the statin therapy when LDL-C was not at goal. […] In addition, irrespective of the TG levels, at Visit 2 (0 Months of Follow-up, baseline) and at Visit 4 (12 Months of Follow-up), LDL-C were measured by preparative ultracentrifugation. These preparative ultracentrifugation LDL-C measurements were used in the statistical analysis including the calculation of the percent change from baseline (1 year versus baseline). Hopkins LDL-C was calculated for each visit.
# Biomarkers Assays: The biomarker assays included: hsCRP, Apo B and hsTnT.
# The fasting lipid panel was tested at Screening (Visit 1 or Visit 1.1), Randomization visit (Visit 2; Day 0), Visit 3 (Day 120; ˜4 Months) and all other follow-up visits including the last visit. For change from baseline to 1 year preparative ultracentrifugation measurements for LDL-C were analyzed, unless this value was missing. If the LDL-C preparative ultracentrifugation values were missing, then another LDL-C value was used, with prioritization of values obtained from LDL-C Direct measurements, followed by LDL-C derived by the Friedewald calculation (only for subjects with TG<400 mg/dL), and finally LDL-C derived using the calculation published by Hopkins University investigators (Martin S S, Blaha M J, Elshazly M B, et al. Comparison of a novel method vs the Friedewald equation for estimating low-density lipoprotein cholesterol levels from the standard lipid profile. JAMA. 2013; 310:2061-8.). In addition, change from baseline to day 120 in LDL-C utilizing Friedewald's and Hopkins methods was analyzed, using the arithmetic mean of LDL-C obtained at Visit 2 (Day 0) and the preceding Visit 1 (or Visit 1.1). If one of these values was missing, the single available LDL-C value was used. LDL-C according to Hopkins was calculated at each visit.
# The randomization visit was considered Baseline. If a baseline value was not available from the randomization visit, then the latest screening value was used. For measurements of lipids, lipoproteins and inflammatory markers, the change and the percent change were summarized at each visit. Since these biomarkers are typically not normally distributed, the Wilcoxon rank-sum test was used for treatment comparisons of the percent change from baseline, and medians and quartiles were provided for each treatment group. The medians of the differences between the treatment groups and 95% CIs were estimated with the Hodges-Lehmann method. In addition, shift-tables were generated as appropriate.
structure (smiles),measurement,setting,value
"CC/C=C\C/C=C\C/C=C\C/C=C\C/C=C\CCCC(=O)OCC [icosapent ethyl, eicosapentaenoic acid ethyl ester]",Apo B Median % Change from Baseline,Last Visit,−2.5%
same,Apo B Median Absolute Change from Baseline,Last Visit,-2.0 mg/dL
same,Apo B Median Observed Value,Last Visit,80.0 mg/dL
same,HDL-C Median % Change from Baseline,Last Visit,2.5%
same,HDL-C Median Absolute Change from Baseline,Last Visit,1.0 mg/dL
same,HDL-C Median Observed Value,Last Visit,41.0 mg/dL
same,LDL-C Hopkins Median % Change from Baseline,Last Visit,−1.2%
same,LDL-C Hopkins Median Absolute Change from Baseline,Last Visit,-1.0 mg/dL
same,LDL-C Hopkins Median Observed Value,Last Visit,84.0 mg/dL
same,LDL-C derived Median % Change from Baseline,Last Visit,3.1%
same,LDL-C derived Median Absolute Change from Baseline,Last Visit,2.0 mg/dL
same,LDL-C derived Median Observed Value,Last Visit,77.0 mg/dL
same,Log hsCRP Median % Change from Baseline,Last Visit,−23.1%
same,Log hsCRP Median Absolute Change from Baseline,Last Visit,−0.1 mg/L
same,Log hsCRP Median Observed Value,Last Visit,0.6 mg/L
same,Non-HDL-C Median % Change from Baseline,Last Visit,−4.4%
same,Non-HDL-C Median Absolute Change from Baseline,Last Visit,-5.0 mg/dL
same,Non-HDL-C Median Observed Value,Last Visit,112.0 mg/dL
same,Triglycerides Median % Change from Baseline,Last Visit,−21.6%
same,Triglycerides Median Absolute Change from Baseline,Last Visit,-45.0 mg/dL
same,Triglycerides Median Observed Value,Last Visit,170.0 mg/dL
same,hsCRP Median % Change from Baseline,Last Visit,−12.6%
same,hsCRP Median Absolute Change from Baseline,Last Visit,-0.2 mg/L
same,hsCRP Median Observed Value,Last Visit,1.8 mg/L
same,Apo B Between Group Difference Median % Change from Baseline,"Last Visit, vs placebo",−6.7%
same,Apo B Between Group Difference Median Absolute Change from Baseline,"Last Visit, vs placebo",-5.0 mg/dL
same,HDL-C Between Group Difference Median % Change from Baseline,"Last Visit, vs placebo",−3.0%
same,HDL-C Between Group Difference Median Absolute Change from Baseline,"Last Visit, vs placebo",-1.0 mg/dL
same,LDL-C Hopkins Between Group Difference Median % Change from Baseline,"Last Visit, vs placebo",−7.4%
same,LDL-C Hopkins Between Group Difference Median Absolute Change from Baseline,"Last Visit, vs placebo",-6.2 mg/dL
same,LDL-C derived Between Group Difference Median % Change from Baseline,"Last Visit, vs placebo",−6.6%
same,LDL-C derived Between Group Difference Median Absolute Change from Baseline,"Last Visit, vs placebo",-5.0 mg/dL
same,Log hsCRP Between Group Difference Median % Change from Baseline,"Last Visit, vs placebo",−21.2%
same,Log hsCRP Between Group Difference Median Absolute Change from Baseline,"Last Visit, vs placebo",−0.4 mg/L
same,Non-HDL-C Between Group Difference Median % Change from Baseline,"Last Visit, vs placebo",−8.6%
same,Non-HDL-C Between Group Difference Median Absolute Change from Baseline,"Last Visit, vs placebo",-10.0 mg/dL
same,Triglycerides Between Group Difference Median % Change from Baseline,"Last Visit, vs placebo",−14.1%
same,Triglycerides Between Group Difference Median Absolute Change from Baseline,"Last Visit, vs placebo",-32.0 mg/dL
same,hsCRP Between Group Difference Median % Change from Baseline,"Last Visit, vs placebo",−37.6%
same,hsCRP Between Group Difference Median Absolute Change from Baseline,"Last Visit, vs placebo",-0.8 mg/L
same,HDL-C Median % Change from Baseline,Month 4,−2.8%
same,HDL-C Median Absolute Change from Baseline,Month 4,-1.0 mg/dL
same,HDL-C Median Observed Value,Month 4,39.0 mg/dL
same,LDL-C Hopkins Median % Change from Baseline,Month 4,−2.0%
same,LDL-C Hopkins Median Absolute Change from Baseline,Month 4,-1.6 mg/dL
same,LDL-C Hopkins Median Observed Value,Month 4,83.6 mg/dL
same,Non-HDL-C Median % Change from Baseline,Month 4,−4.0%
same,Non-HDL-C Median Absolute Change from Baseline,Month 4,-4.5 mg/dL
same,Non-HDL-C Median Observed Value,Month 4,113.0 mg/dL
same,Triglycerides Median % Change from Baseline,Month 4,−18.6%
same,Triglycerides Median Absolute Change from Baseline,Month 4,-37.5 mg/dL
same,Triglycerides Median Observed Value,Month 4,177.0 mg/dL
same,HDL-C Between Group Difference Median % Change from Baseline,"Month 4, vs placebo",−7.2%
same,HDL-C Between Group Difference Median Absolute Change from Baseline,"Month 4, vs placebo",-3.0 mg/dL
same,LDL-C Hopkins Between Group Difference Median % Change from Baseline,"Month 4, vs placebo",−10.3%
same,LDL-C Hopkins Between Group Difference Median Absolute Change from Baseline,"Month 4, vs placebo",-8.7 mg/dL
same,Non-HDL-C Between Group Difference Median % Change from Baseline,"Month 4, vs placebo",−12.2%
same,Non-HDL-C Between Group Difference Median Absolute Change from Baseline,"Month 4, vs placebo",-14.3 mg/dL
same,Triglycerides Between Group Difference Median % Change from Baseline,"Month 4, vs placebo",−20.1%
same,Triglycerides Between Group Difference Median Absolute Change from Baseline,"Month 4, vs placebo",-45.5 mg/dL
same,HDL-C Median % Change from Baseline,Year 1,−2.6%
same,HDL-C Median Absolute Change from Baseline,Year 1,-1.0 mg/dL
same,HDL-C Median Observed Value,Year 1,39.0 mg/dL
same,LDL-C Hopkins Median % Change from Baseline,Year 1,−1.2%
same,LDL-C Hopkins Median Absolute Change from Baseline,Year 1,-1.1 mg/dL
same,LDL-C Hopkins Median Observed Value,Year 1,85.3 mg/dL
same,LDL-C derived Median % Change from Baseline,Year 1,3.1%
same,LDL-C derived Median Absolute Change from Baseline,Year 1,2.0 mg/dL
same,LDL-C derived Median Observed Value,Year 1,77.0 mg/dL
same,Non-HDL-C Median % Change from Baseline,Year 1,−3.6%
same,Non-HDL-C Median Absolute Change from Baseline,Year 1,-4.0 mg/dL
same,Non-HDL-C Median Observed Value,Year 1,113.0 mg/dL
same,Triglycerides Median % Change from Baseline,Year 1,−18.3%
same,Triglycerides Median Absolute Change from Baseline,Year 1,-39.0 mg/dL
same,Triglycerides Median Observed Value,Year 1,175.0 mg/dL
same,HDL-C Between Group Difference Median % Change from Baseline,"Year 1, vs placebo",−6.3%
same,HDL-C Between Group Difference Median Absolute Change from Baseline,"Year 1, vs placebo",-2.5 mg/dL
same,LDL-C Hopkins Between Group Difference Median % Change from Baseline,"Year 1, vs placebo",−11.4%
same,LDL-C Hopkins Between Group Difference Median Absolute Change from Baseline,"Year 1, vs placebo",-9.6 mg/dL
same,LDL-C derived Between Group Difference Median % Change from Baseline,"Year 1, vs placebo",−6.6%
same,LDL-C derived Between Group Difference Median Absolute Change from Baseline,"Year 1, vs placebo",-5.0 mg/dL
same,Non-HDL-C Between Group Difference Median % Change from Baseline,"Year 1, vs placebo",−13.1%
same,Non-HDL-C Between Group Difference Median Absolute Change from Baseline,"Year 1, vs placebo",-15.5 mg/dL
same,Triglycerides Between Group Difference Median % Change from Baseline,"Year 1, vs placebo",−19.7%
same,Triglycerides Between Group Difference Median Absolute Change from Baseline,"Year 1, vs placebo",-44.5 mg/dL
same,Apo B Median Year 1,Year 1 in Table 18,80.0 mg/dL
same,hsCRP Median Year 1,Year 1 in Table 18,1.8 mg/L
same,"Apo B Median Between Group Difference at Year 1, % Change from Baseline","Year 1 in Table 18, vs placebo",−9.7%
same,"Apo B Median Between Group Difference at Year 1, Absolute Change from Baseline","Year 1 in Table 18, vs placebo",-8.0 mg/dL
same,"hsCRP Median Between Group Difference at Year 1, % Change from Baseline","Year 1 in Table 18, vs placebo",−39.9%
same,"hsCRP Median Between Group Difference at Year 1, Absolute Change from Baseline","Year 1 in Table 18, vs placebo",-0.9 mg/L
same,Apo B Median % Change from Baseline,Year 2,−2.5%
same,Apo B Median Absolute Change from Baseline,Year 2,-2.0 mg/dL
